The record followed here is ChEMBL document CHEMBL1157136, “Design and synthesis of cyclic disulfide-bonded antibacterial peptides on the basis of the alpha helical domain of Tenecin 1, an insect defensin” (Bioorg Med Chem, 2008).

For data set [1], the system named is Micrococcus luteus. The data set is described as follows: Antimicrobial activity against Micrococcus luteus after 24 hrs by microdilution technique in high salt condition. In kind it is functional. (In general: In broth dilution the organism is exposed to a series of concentrations in liquid medium.)
In data set [2] the test system is Pseudomonas aeruginosa. In words: Antimicrobial activity against Pseudomonas aeruginosa after 24 hrs by microdilution technique in high salt condition. It counts as functional.
The subject of data set [3] is Escherichia coli. In words: Antimicrobial activity against Escherichia coli after 24 hrs by microdilution technique in high salt condition. In kind it is functional.
A further data set deals with Erythrocyte. In words: Hemolytic activity in human red blood cells after 1 hrs. It counts as functional.
Data set [4] deals with Staphylococcus aureus. In words: Antimicrobial activity against Staphylococcus aureus after 24 hrs by microdilution technique in high salt condition. In kind it is functional.
Data set [5] has as its system Candida albicans. The data set is described as follows: Antimicrobial activity against Candida albicans after 24 hrs by microdilution technique in high salt condition. It counts as functional.
In data set [6] the test system is Escherichia coli. The data set is described as follows: Antimicrobial activity against Escherichia coli after 24 hrs by microdilution technique in absence of NaCl. It counts as functional.
The test system of data set [7] is Pseudomonas aeruginosa. In words: Antimicrobial activity against Pseudomonas aeruginosa after 24 hrs by microdilution technique in absence of NaCl. In kind it is functional.
The test system of data set [8] is Micrococcus luteus. In words: Antimicrobial activity against Micrococcus luteus after 24 hrs by microdilution technique in absence of NaCl. In kind it is functional.
The test system of data set [9] is Staphylococcus aureus. The data set is described as follows: Antimicrobial activity against Staphylococcus aureus after 24 hrs by microdilution technique in absence of NaCl. It counts as functional.
Data set [10] in a line: Effect on leakage from large unilamellar vesicles containing phosphatidylglycerol/phosphatidyl choline assessed as release of entrapped dye at 50 uM. In kind it is physicochemical.
The test system of data set [11] is Candida albicans. In words: Antimicrobial activity against Candida albicans after 24 hrs by microdilution technique in absence of NaCl. In kind it is functional.

≈ marks a conversion by molar mass, not a printed value. Where a SMILES comes first, the peptide text is derived from it. Bridges are numbered along the chain shown (N, C = ends).

As to `CC(C)C[C@H](NC(=O)[C@H](CS)NC(=O)[C@H](CCCCN)NC(=O)[C@H](C)NC(=O)[C@H](C)NC(=O)[C@H](CS)NC(=O)[C@H](C)NC(=O)[C@H](C)NC(=O)[C@@H](N)CC(=O)O)C(=O)N[C@@H](Cc1c[nH]c2ccccc12)C(=O)N[C@@H](CCCNC(=N)N)C(N)=O` (H-DAACAAKCLWR-NH2), the MIC is above 200 µg/mL with Micrococcus luteus [1]; above 200 µg/mL in the data set with Pseudomonas aeruginosa [2]; above 200 µg/mL with Escherichia coli [3]; above 200 µg/mL with Staphylococcus aureus [4]; above 200 µg/mL with Candida albicans [5]; 200 µg/mL (≈ 166 µM) against Escherichia coli [6]. In addition, the MIC was above 200 µg/mL in the data set on Pseudomonas aeruginosa [7], 200 µg/mL (≈ 166 µM) with Micrococcus luteus [8] and 200 µg/mL (≈ 166 µM) in the data set on Staphylococcus aureus [9]. Further, in the data set on Erythrocyte, the HC50 was above 200 µg/mL.
With `CC(C)C[C@H](NC(=O)[C@H](CS)NC(=O)[C@H](CCCCN)NC(=O)[C@H](C)NC(=O)[C@H](C)NC(=O)[C@H](CS)NC(=O)[C@H](C)NC(=O)[C@H](C)NC(=O)[C@@H](N)CCCCN)C(=O)N[C@@H](Cc1c[nH]c2ccccc12)C(=O)N[C@@H](CCCNC(=N)N)C(N)=O` (H-KAACAAKCLWR-NH2), the MIC with Micrococcus luteus [1] is 200 µg/mL; in the data set with Pseudomonas aeruginosa [2], above 200 µg/mL; in the data set with Escherichia coli [3] it was above 200 µg/mL; with Staphylococcus aureus [4], 100 µg/mL; in the data set on Candida albicans [5], above 200 µg/mL; in the data set on Escherichia coli [6], 50 µg/mL (≈ 41 µM). For the same compound, the figures for the MIC in the data set on Pseudomonas aeruginosa [7], with Micrococcus luteus [8] and with Staphylococcus aureus [9] were 100 µg/mL (≈ 82 µM), 25 µg/mL (≈ 20.5 µM) and 50 µg/mL (≈ 41 µM), respectively. Further, in the data set with Erythrocyte, the HC50 was above 200 µg/mL.
For the compound `CC(C)C[C@H](NC(=O)[C@H](CS)NC(=O)[C@H](Cc1cnc[nH]1)NC(=O)[C@H](C)NC(=O)[C@H](C)NC(=O)[C@H](CS)NC(=O)[C@H](C)NC(=O)[C@H](C)NC(=O)[C@@H](N)CCCCN)C(=O)N[C@@H](Cc1c[nH]c2ccccc12)C(=O)N[C@@H](CCCNC(=N)N)C(N)=O` (H-KAACAAHCLWR-NH2) [listing 1 of 2 here], the MIC with Micrococcus luteus [1] is above 200 µg/mL; in the data set on Pseudomonas aeruginosa [2], above 200 µg/mL; in the data set on Escherichia coli [3] it was above 200 µg/mL; in the data set with Staphylococcus aureus [4], above 200 µg/mL; in the data set on Candida albicans [5], above 200 µg/mL; against Escherichia coli [6], 50 µg/mL. For the same compound, the MIC was found to be 100 µg/mL in the data set on Pseudomonas aeruginosa [7], 25 µg/mL against Micrococcus luteus [8] and 50 µg/mL in the data set on Staphylococcus aureus [9]. In the data set on Erythrocyte, this compound yielded an HC50 above 200 µg/mL.
For the compound `CC(C)C[C@H](NC(=O)[C@@H]1CSSC[C@H](NC(=O)[C@H](C)NC(=O)[C@H](C)NC(=O)[C@@H](N)CC(=O)O)C(=O)N[C@@H](C)C(=O)N[C@@H](C)C(=O)N[C@@H](Cc2cnc[nH]2)C(=O)N1)C(=O)N[C@@H](Cc1c[nH]c2ccccc12)C(=O)N[C@@H](CCCNC(=N)N)C(N)=O` (H-DAACAAHCLWR-NH2; disulfide 4-8), the MIC with Micrococcus luteus [1], with Pseudomonas aeruginosa [2], with Escherichia coli [3], in the data set with Staphylococcus aureus [4], in the data set with Candida albicans [5] and against Escherichia coli [6] was above 200 µg/mL each time. For the same compound, the MIC against Pseudomonas aeruginosa [7], with Micrococcus luteus [8] and in the data set on Staphylococcus aureus [9] was above 200 µg/mL throughout. The compound further displayed an HC50 in the data set with Erythrocyte above 200 µg/mL.
Turning to `CC(C)C[C@H](NC(=O)[C@@H]1CSSC[C@H](NC(=O)[C@H](C)NC(=O)[C@H](C)NC(=O)[C@@H](N)CCCCN)C(=O)N[C@@H](C)C(=O)N[C@@H](C)C(=O)N[C@@H](Cc2cnc[nH]2)C(=O)N1)C(=O)N[C@@H](Cc1c[nH]c2ccccc12)C(=O)N[C@@H](CCCNC(=N)N)C(N)=O` (H-KAACAAHCLWR-NH2; disulfide 4-8), the MIC in the data set with Micrococcus luteus [1] was 100 µg/mL; in the data set on Pseudomonas aeruginosa [2], above 200 µg/mL; in the data set on Escherichia coli [3] it was above 200 µg/mL; with Staphylococcus aureus [4], 100 µg/mL; in the data set on Candida albicans [5], above 200 µg/mL; in the data set on Escherichia coli [6], above 200 µg/mL. Also, the MIC against Pseudomonas aeruginosa [7] is above 200 µg/mL; in the data set with Micrococcus luteus [8], 100 µg/mL; against Staphylococcus aureus [9] it was 100 µg/mL. Moreover, the Activity in [10] turned out to be 20%. The HC50 in the data set on Erythrocyte was above 200 µg/mL.
Turning to `CC(C)C[C@H](NC(=O)[C@H](CS)NC(=O)[C@H](Cc1cnc[nH]1)NC(=O)[C@H](C)NC(=O)[C@H](C)NC(=O)[C@H](CS)NC(=O)[C@H](C)NC(=O)[C@H](C)NC(=O)[C@@H](N)CCCCN)C(=O)N[C@@H](Cc1c[nH]c2ccccc12)C(=O)N[C@@H](CCCNC(=N)N)C(N)=O` (H-KAACAAHCLWR-NH2) [listing 2 of 2 here], the Activity in [10] is recorded as 70%.
For `CC(C)C[C@H](NC(=O)[C@@H]1CSSC[C@H](NC(=O)[C@H](C)NC(=O)[C@H](C)NC(=O)[C@@H](N)CCCCN)C(=O)N[C@@H](C)C(=O)N[C@@H](C)C(=O)N[C@@H](CCCCN)C(=O)N1)C(=O)N[C@@H](Cc1c[nH]c2ccccc12)C(=O)N[C@@H](CCCNC(=N)N)C(N)=O` (H-KAACAAKCLWR-NH2; disulfide 4-8), the MIC was 200 µg/mL in the data set on Micrococcus luteus [1]; above 200 µg/mL in the data set on Pseudomonas aeruginosa [2]; 200 µg/mL in the data set with Escherichia coli [3]; above 200 µg/mL with Staphylococcus aureus [4]; above 200 µg/mL with Candida albicans [5]; 50 µg/mL (≈ 41.1 µM) against Escherichia coli [6]. Moreover, the MIC with Pseudomonas aeruginosa [7] is above 200 µg/mL; in the data set with Micrococcus luteus [8], 50 µg/mL (≈ 41.1 µM); in the data set with Staphylococcus aureus [9], 50 µg/mL (≈ 41.1 µM). Also, in the data set with Erythrocyte, the HC50 is above 200 µg/mL.
With `CC(C)C[C@H](NC(=O)[C@H](CS)NC(=O)[C@H](Cc1cnc[nH]1)NC(=O)[C@H](C)NC(=O)[C@H](C)NC(=O)[C@H](CS)NC(=O)[C@H](C)NC(=O)[C@H](C)NC(=O)[C@@H](N)CC(=O)O)C(=O)N[C@@H](Cc1c[nH]c2ccccc12)C(=O)N[C@@H](CCCNC(=N)N)C(N)=O` (H-DAACAAHCLWR-NH2), the MIC with Micrococcus luteus [1], with Pseudomonas aeruginosa [2], with Escherichia coli [3], against Candida albicans [11], with Staphylococcus aureus [4] and in the data set on Candida albicans [5] was above 200 µg/mL in each case. Further, the MIC against Escherichia coli [6], against Pseudomonas aeruginosa [7], against Micrococcus luteus [8] and against Staphylococcus aureus [9] was above 200 µg/mL throughout. Further, the HC50 in the data set with Erythrocyte is above 200 µg/mL.
Turning to `CC(C)C[C@H](NC(=O)[C@@H]1CSSC[C@H](NC(=O)[C@H](C)NC(=O)[C@H](C)NC(=O)[C@@H](N)CC(=O)O)C(=O)N[C@@H](C)C(=O)N[C@@H](C)C(=O)N[C@@H](CCCCN)C(=O)N1)C(=O)N[C@@H](Cc1c[nH]c2ccccc12)C(=O)N[C@@H](CCCNC(=N)N)C(N)=O` (H-DAACAAKCLWR-NH2; disulfide 4-8), the MIC in the data set on Micrococcus luteus [1], in the data set with Pseudomonas aeruginosa [2], in the data set with Escherichia coli [3], in the data set on Staphylococcus aureus [4], in the data set with Candida albicans [5] and against Escherichia coli [6] was above 200 µg/mL each time. In addition, the MIC in the data set on Pseudomonas aeruginosa [7], in the data set with Micrococcus luteus [8] and against Staphylococcus aureus [9] was above 200 µg/mL in each case. In the data set on Erythrocyte, this compound showed an HC50 above 200 µg/mL.

By MIC is commonly meant the smallest concentration in the dilution series that meets the test's criterion for growth inhibition. One may read the HC50 as the concentration giving 50% haemolysis. Higher therefore signals less damage to red cells.
